Test results taken from patent publication US20150374673A1, “Combination Therapy for the Treatment of Nosocomial Pneumonia” (priority 2013, published 2015).

Columns and labels:
[1] = Protein binding, equilibrium dialysis chamber, LC-MS/MS; format: in vitro ADME
Description: Blood was separated from plasma using a cooled centrifuge. Samples were split and stored at −80° C.

E. coli = assay: MIC, CLSI broth microdilution in CAMHB with 0-10% pulmonary surfactant (avibactam fixed at 4 μg/mL in combination); format: cell-based; conditions: Escherichia coli
Description: (§1) The bacterial strains used in this testing were part of the microbiological culture collection housed at AstraZeneca R&D Boston (AstraZeneca Research Collection, designated ARC). The panel of bacterial isolates used for this testing was comprised of five CLSI QC reference strains and the remainder were either recent clinical isolates expressing β-lactamases or isolates from the primary bacterial screening panels.
(§2) MIC values were determined using the CLSI broth microdilution methodology with slight variation. Stock compound mother plates were prepared and used to spot 2 μL aliquots of serial 2-fold drug dilutions to columns 1-11 of 96-well daughter plates using a Perkin-Elmer MiniTrak™ MultiPosition dispenser. […] An inoculum volume of 100 μL (5×10E^5 CFU/mL) in CAMHB containing 0, 1, 2.5, 5, or 10% pulmonary surfactant was added using a multichannel Finnpipette® to each well of the 96-well plate.
(§3) The minimum inhibitory concentration (MIC) values against each organism/drug combination were determined using broth microdilution methodology according to CLSI guidelines. The recommended reference bacterial strains for each test group and reference compounds were incorporated into each test. For Gram-negatives, the reference bacterial strains were Escherichia coli ATCC 25922, E. coli ATCC 35218, Klebsiella pneumoniae ATCC 700603, and Pseudomonas aeruginosa ATCC 27853. Staphylococcus aureus ATCC 29213 was the reference bacterial strain for the Gram-positives.
(§4) MIC values for individual isolates were read visually. The MICs for each compound or combination in pulmonary surfactant was compared to the compound or combination tested in CAMHB alone.

K. pneumoniae = assay: as above; format: cell-based; conditions: Klebsiella pneumoniae
Description: as §1, §2, §3, §4

P. aeruginosa = assay: Neutropenic thigh infection model (CD-1 mice), exposure response of ceftazidime q2h and avibactam; format: in vivo, Pseudomonas aeruginosa; conditions: ceftazidime monotherapy q2h
Description: CD-1 neutropenic mice were infected with appr. 10^6 cfu β-lactamase-producing P. aeruginosa strains in the thigh.
Outbred female CD-1 mice (Charles River, Netherlands), 4 to 5 weeks old, weighing 20 to 25 g were used in the experiments. Granulocytopenia was induced by two doses of cyclophosphamide s.c.: one at four days (150 mg/kg) and the other at one day (100 mg/kg) before the infection experiment.
The neutropenic mice were infected with 2 P. aeruginosa strains per animal, one in the left and one in the right thigh. 0.05 mL of bacterial suspension consisting of approximately 10^5-10^6 bacteria was inoculated intramuscularly. […] All dosing regimens were performed in at least two animals. At t=0 h, 2 mice were humanely sacrificed to determine the initial inoculum just before treatment. All other animals were sacrificed at t=24 h unless the welfare of the animals indicated earlier termination was necessary, following animal welfare regulations. Thighs were taken and moved to a pre-cooled 10-mL plastic tube (Transport Tube, Omnilabo, NL) ? containing 2 mL phosphate buffered saline (PBS; NaCl 8.00 g/L, Na2HPO42H2 1.44 g/L, KH2PO4 0.26 g/L, pH 7.2-7.4). Subsequently thighs were ground using an Ultra-Turrax (IKA Labortechnik, Germany). A tenfold dilution series was prepared and 3×10 μL plated (Chromagar, Biomerieux, NL) per dilution. The following day, colonies were counted and the number of cfu per thigh calculated. The drug effect was then determined as the difference between the log10[cfu/thigh] values at t=24 h and t=0 h (mean value of 2 mice) expressed as “dcfu”.
The amount of avibactam administered varied in frequency and dose. […] The drug effect was determined as the difference between the log10 [cfu/thigh] values at t=24 h and t=0 h (mean value of 2 mice) expressed as dcfu. Free drug concentrations were used in all calculations. […] Oral presentation at the ? 52nd Interscience Conference on Antimicrobial Agents and Chemotherapy, San Francisco, Calif. Abstract #A-1760).

Structure (SMILES): CC(C)(O/N=C(\C(=O)N[C@@H]1C(=O)N2C(C(=O)[O-])=C(C[n+]3ccccc3)CS[C@H]12)c1csc(N)n1)C(=O)O [ceftazidime, (6R,7R)-7-[[(2Z)-2-(2-amino-1,3-thiazol-4-yl)-2-(1-hydroxy-2-methyl-1-oxopropan-2-yl)oxyiminoacetyl]amino]-8-oxo-3-(pyridin-1-ium-1-ylmethyl)-5-thia-1-azabicyclo[4.2.0]oct-2-ene-2-carboxylate pentahydrate]
- fraction unbound [1]: 0.9
- MIC (E. coli; ATCC25922, E. coli ARC4 (CLSI QC strain, ATCC 25922), surfactant 0%): 0.25 µg/mL
- MIC (E. coli; ATCC25922, E. coli ARC4 (CLSI QC strain, ATCC 25922), surfactant 1%): 0.25 µg/mL
- MIC (E. coli; ATCC25922, E. coli ARC4 (CLSI QC strain, ATCC 25922), surfactant 2.5%): 0.25 µg/mL
- MIC (E. coli; ATCC25922, E. coli ARC4 (CLSI QC strain, ATCC 25922), surfactant 5%): 0.25 µg/mL
- MIC (E. coli; ATCC25922, E. coli ARC4 (CLSI QC strain, ATCC 25922), surfactant 10%): 0.25 µg/mL
- MIC (E. coli; ATCC35218, E. coli ARC016 (ATCC 35218, TEM-1), surfactant 0%): 0.12 µg/mL
- MIC (E. coli; ATCC35218, E. coli ARC016 (ATCC 35218, TEM-1), surfactant 1%): 0.12 µg/mL
- MIC (E. coli; ATCC35218, E. coli ARC016 (ATCC 35218, TEM-1), surfactant 2.5%): 0.12 µg/mL
- MIC (E. coli; ATCC35218, E. coli ARC016 (ATCC 35218, TEM-1), surfactant 5%): 0.12 µg/mL
- MIC (E. coli; ATCC35218, E. coli ARC016 (ATCC 35218, TEM-1), surfactant 10%): 0.12 µg/mL
- MIC (E. coli; E. coli ARC523 (W3110), surfactant 0%): 0.5 µg/mL
- MIC (E. coli; E. coli ARC523 (W3110), surfactant 1%): 0.5 µg/mL
- MIC (E. coli; E. coli ARC523 (W3110), surfactant 2.5%): 0.25 µg/mL
- MIC (E. coli; E. coli ARC523 (W3110), surfactant 5%): 0.5 µg/mL
- MIC (E. coli; E. coli ARC523 (W3110), surfactant 10%): 0.5 µg/mL
- MIC (E. coli; E. coli ARC3666 (CTX-M-15, OXA-1/30, SHV-31, TEM-1), surfactant 0%): 32 µg/mL
- MIC (E. coli; E. coli ARC3666 (CTX-M-15, OXA-1/30, SHV-31, TEM-1), surfactant 1%): 32 µg/mL
- MIC (E. coli; E. coli ARC3666 (CTX-M-15, OXA-1/30, SHV-31, TEM-1), surfactant 2.5%): 32 µg/mL
- MIC (E. coli; E. coli ARC3666 (CTX-M-15, OXA-1/30, SHV-31, TEM-1), surfactant 5%): 32 µg/mL
- MIC (E. coli; E. coli ARC3666 (CTX-M-15, OXA-1/30, SHV-31, TEM-1), surfactant 10%): 32 µg/mL
- MIC (E. coli; E. coli ARC3690 (CTX-M-15, SHV-12), surfactant 0%): 64 µg/mL
- MIC (E. coli; E. coli ARC3690 (CTX-M-15, SHV-12), surfactant 1%): 64 µg/mL
- MIC (E. coli; E. coli ARC3690 (CTX-M-15, SHV-12), surfactant 2.5%): 64 µg/mL
- MIC (E. coli; E. coli ARC3690 (CTX-M-15, SHV-12), surfactant 5%): 64 µg/mL
- MIC (E. coli; E. coli ARC3690 (CTX-M-15, SHV-12), surfactant 10%): 64 µg/mL
- MIC (K. pneumoniae; ATCC700603, K. pneumoniae ARC561 (ATCC 700603; SHV-18, OXA-2, OKP-6), surfactant 0%): 32 µg/mL
- MIC (K. pneumoniae; ATCC700603, K. pneumoniae ARC561 (ATCC 700603; SHV-18, OXA-2, OKP-6), surfactant 1%): 32 µg/mL
- MIC (K. pneumoniae; ATCC700603, K. pneumoniae ARC561 (ATCC 700603; SHV-18, OXA-2, OKP-6), surfactant 2.5%): 32 µg/mL
- MIC (K. pneumoniae; ATCC700603, K. pneumoniae ARC561 (ATCC 700603; SHV-18, OXA-2, OKP-6), surfactant 5%): 32 µg/mL
- MIC (K. pneumoniae; ATCC700603, K. pneumoniae ARC561 (ATCC 700603; SHV-18, OXA-2, OKP-6), surfactant 10%): 32 µg/mL
- MIC (K. pneumoniae; K. pneumoniae ARC1865 (Primary Screening Panel), surfactant 1%): 0.25 µg/mL
- MIC (K. pneumoniae; K. pneumoniae ARC1865 (Primary Screening Panel), surfactant 2.5%): 0.5 µg/mL
- MIC (K. pneumoniae; K. pneumoniae ARC1865 (Primary Screening Panel), surfactant 5%): 0.5 µg/mL
- MIC (K. pneumoniae; K. pneumoniae ARC1865 (Primary Screening Panel), surfactant 10%): 0.5 µg/mL
- MIC (K. pneumoniae; K. pneumoniae ARC1865 (Primary Screening Panel), surfactant concentration cell empty): 0.5 µg/mL
- MIC (K. pneumoniae; K. pneumoniae ARC2528 (Clinical isolate), surfactant 0%): 1 µg/mL
- MIC (K. pneumoniae; K. pneumoniae ARC2528 (Clinical isolate), surfactant 1%): 2 µg/mL
- MIC (K. pneumoniae; K. pneumoniae ARC2528 (Clinical isolate), surfactant 2.5%): 1 µg/mL
- MIC (K. pneumoniae; K. pneumoniae ARC2528 (Clinical isolate), surfactant 5%): 1 µg/mL
- MIC (K. pneumoniae; K. pneumoniae ARC2528 (Clinical isolate), surfactant 10%): 1 µg/mL
- MIC (K. pneumoniae; K. pneumoniae ARC2929 (KPC-3), surfactant 0%): > 64 µg/mL
- MIC (K. pneumoniae; K. pneumoniae ARC2929 (KPC-3), surfactant 1%): > 64 µg/mL
- MIC (K. pneumoniae; K. pneumoniae ARC2929 (KPC-3), surfactant 2.5%): > 64 µg/mL
- MIC (K. pneumoniae; K. pneumoniae ARC2929 (KPC-3), surfactant 5%): > 64 µg/mL
- MIC (K. pneumoniae; K. pneumoniae ARC2929 (KPC-3), surfactant 10%): > 64 µg/mL
- MIC (K. pneumoniae; K. pneumoniae ARC2945 (KPC-2, SHV-11, TEM-1, OXA-9), surfactant 0%): 64 µg/mL
- MIC (K. pneumoniae; K. pneumoniae ARC2945 (KPC-2, SHV-11, TEM-1, OXA-9), surfactant 1%): 64 µg/mL
- MIC (K. pneumoniae; K. pneumoniae ARC2945 (KPC-2, SHV-11, TEM-1, OXA-9), surfactant 2.5%): 64 µg/mL
- MIC (K. pneumoniae; K. pneumoniae ARC2945 (KPC-2, SHV-11, TEM-1, OXA-9), surfactant 5%): 64 µg/mL
- MIC (K. pneumoniae; K. pneumoniae ARC2945 (KPC-2, SHV-11, TEM-1, OXA-9), surfactant 10%): 64 µg/mL
- MIC (K. pneumoniae; K. pneumoniae ARC3713 (CTX-M-15, OXA-1/30, SHV-5, TEM-1), surfactant 0%): > 64 µg/mL
- MIC (K. pneumoniae; K. pneumoniae ARC3713 (CTX-M-15, OXA-1/30, SHV-5, TEM-1), surfactant 1%): > 64 µg/mL
- MIC (K. pneumoniae; K. pneumoniae ARC3713 (CTX-M-15, OXA-1/30, SHV-5, TEM-1), surfactant 2.5%): > 64 µg/mL
- MIC (K. pneumoniae; K. pneumoniae ARC3713 (CTX-M-15, OXA-1/30, SHV-5, TEM-1), surfactant 5%): > 64 µg/mL
- MIC (K. pneumoniae; K. pneumoniae ARC3713 (CTX-M-15, OXA-1/30, SHV-5, TEM-1), surfactant 10%): > 64 µg/mL
- static % fT > MIC (CAZ) (P. aeruginosa; isolate no. 1): no effect
- static % fT > MIC (CAZ) (P. aeruginosa; isolate no. 3): 0%
- static % fT > MIC (CAZ) (P. aeruginosa; isolate no. 5): 3%
- static % fT > MIC (CAZ) (P. aeruginosa; isolate no. 7): 7.2%
- static % fT > MIC (CAZ) (P. aeruginosa; isolate no. 11): no effect
- static % fT > MIC (CAZ) (P. aeruginosa; isolate no. 18): 9%
- static % fT > MIC (CAZ) (P. aeruginosa; isolate no. 19): 38%
